Assay results from patent US20250320213A1, “Nitrogen-Containing Heterocyclic Compounds” (Pfizer Inc., priority 2024, published 2025).

What was measured:
[1] = target: T1, STAT6 (Homo sapiens, UniProt P42226); test: STAT6 Reporter Luciferase Assay (IL-13 stimulated HaCaT keratinocyte NanoLuc reporter cells); type: cell-based; conditions: IL-13 stimulated HaCaT STAT6 NanoLuc reporter cells; read-out: Reporter EC50
T1 construct: stably transfected HaCaT keratinocyte cell line, which expresses NanoLuc luciferase reporter gene under the transcriptional control of the STAT6 responsive promoter; endogenous in cells; host or cells: HaCaT keratinocyte reporter cell line (stably transfected with a NanoLuc reporter)
T1 sequence (P42226 1-847): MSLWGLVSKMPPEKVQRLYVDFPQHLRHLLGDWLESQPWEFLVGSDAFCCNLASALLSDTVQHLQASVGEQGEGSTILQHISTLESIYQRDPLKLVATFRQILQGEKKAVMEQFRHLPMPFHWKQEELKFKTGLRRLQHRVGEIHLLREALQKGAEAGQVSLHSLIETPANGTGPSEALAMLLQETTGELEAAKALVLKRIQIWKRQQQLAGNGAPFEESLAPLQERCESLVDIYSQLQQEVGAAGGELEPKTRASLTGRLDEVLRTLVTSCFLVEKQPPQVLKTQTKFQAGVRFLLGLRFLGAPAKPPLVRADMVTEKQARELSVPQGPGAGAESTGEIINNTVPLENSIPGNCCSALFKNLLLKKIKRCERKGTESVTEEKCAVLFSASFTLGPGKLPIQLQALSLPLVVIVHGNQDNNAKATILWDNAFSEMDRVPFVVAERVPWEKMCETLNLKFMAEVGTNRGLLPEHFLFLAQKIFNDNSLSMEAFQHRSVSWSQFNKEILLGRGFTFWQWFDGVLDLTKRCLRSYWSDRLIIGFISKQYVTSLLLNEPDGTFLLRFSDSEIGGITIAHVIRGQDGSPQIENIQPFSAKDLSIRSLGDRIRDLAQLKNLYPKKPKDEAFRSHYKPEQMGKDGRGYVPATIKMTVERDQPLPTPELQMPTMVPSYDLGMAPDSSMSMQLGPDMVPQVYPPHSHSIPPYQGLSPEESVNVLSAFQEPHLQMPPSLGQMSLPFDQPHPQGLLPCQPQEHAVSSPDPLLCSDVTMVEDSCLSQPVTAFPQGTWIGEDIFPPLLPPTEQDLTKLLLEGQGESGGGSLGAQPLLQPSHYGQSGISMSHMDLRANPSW
Method in brief: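 HaCaT IL-13Ra2-promoter NanoLuc reporter; cpd 2 h 37 °C in DMEM/2% HI FBS; IL-13 0.12 nM final, 4 h; Nano-Glo luminescence.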

[2] = tested on: CCL17 secretion in peripheral human whole blood; test: Human Whole Blood (HWB) CCL17 TR-FRET Assay (IL-13 stimulated CCL17 secretion); type: cell-based; conditions: Homo sapiens, 48 h, human whole blood, IL-13 stimulated
Method in brief: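 Measured here: CCL17 in serum by TR-FRET (665/615 nm) after overnight (16 h) room-temperature detection. The blood, heparinized and compound-treated for 2 h, received IL-13 at 10 ng/mL final and was cultured 48 h at 37 °C.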

| SMILES | EC50 [1] [nM] | IC50 [2] [nM] |
| --- | --- | --- |
| CC(C)n1nc(C(=O)NCc2ccc(-c3ncc[nH]3)cc2)c2c1[C@@H](C)CN(c1ncc(N3CCCC3=O)cn1)C2 [Example 487, (S)-N-(4-(1H-imidazol-2-yl)benzyl)-1-isopropyl-7-methyl-5-(5-(2-oxopyrrolidin-1-yl)pyrimidin-2-yl)-4,5,6,7-tetrahydro-1H-pyrazolo[4,3-c]pyridine-3-carboxamide] | 2 | 16 |
| CCn1nc(C(=O)NCc2ccc(NC(=O)N(C)C)cc2)c2c1[C@@H](C)CN(c1ncc(N3CCCC3=O)cn1)C2 [Example 488, (S)-N-(4-(3,3-dimethylureido)benzyl)-1-ethyl-7-methyl-5-(5-(2-oxopyrrolidin-1-yl)pyrimidin-2-yl)-4,5,6,7-tetrahydro-1H-pyrazolo[4,3-c]pyridine-3-carboxamide] | 3 | 27 |
| CC(C)n1nc(C(=O)NCc2ccc(C(N)=O)cc2)c2c1[C@@H](C)CN(c1ncc(N3CCCC3=O)cn1)C2 [Example 489, (S)-N-(4-carbamoylbenzyl)-1-isopropyl-7-methyl-5-(5-(2-oxopyrrolidin-1-yl)pyrimidin-2-yl)-4,5,6,7-tetrahydro-1H-pyrazolo[4,3-c]pyridine-3-carboxamide] | 18 | 17 |
| CNC(=O)c1ccc(CNC(=O)c2nn(C(C)C)c3c2CN(c2ncc(N4CCCC4=O)cn2)C[C@@H]3C)cc1 [Example 490, (S)-1-isopropyl-7-methyl-N-(4-(methylcarbamoyl)benzyl)-5-(5-(2-oxopyrrolidin-1-yl)pyrimidin-2-yl)-4,5,6,7-tetrahydro-1H-pyrazolo[4,3-c]pyridine-3-carboxamide] | 13 | 50 |
| CC(C)n1nc(C(=O)NCc2ccc(N)cc2)c2c1[C@@H](C)CN(c1ncc(C(=O)N(C)C)cn1)C2 [Example 491, (S)-N-(4-aminobenzyl)-5-(5-(dimethylcarbamoyl)pyrimidin-2-yl)-1-isopropyl-7-methyl-4,5,6,7-tetrahydro-1H-pyrazolo[4,3-c]pyridine-3-carboxamide] | 7 | 34 |
| CC(C)n1nc(C(=O)NCc2ccc(NC(=O)NCc3ccc(NC(=O)N(C)C)cc3)cc2)c2c1[C@@H](C)CN(c1ncc(C(=O)N(C)C)cn1)C2 [Example 492, (S)-5-(5-(dimethylcarbamoyl)pyrimidin-2-yl)-N-(4-(3-(4-(3,3-dimethylureido)benzyl)ureido)benzyl)-1-isopropyl-7-methyl-4,5,6,7-tetrahydro-1H-pyrazolo[4,3-c]pyridine-3-carboxamide] | 0.5 | 4 |
| CCn1nc(C(=O)NCc2ccc(NC(=O)N(C)C)cc2)c2c1[C@@H](C)CN(c1ncc(C(=O)N3Cc4cccnc4C3)cn1)C2 [Example 495, (S)-5-(5-(6,7-dihydro-5H-pyrrolo[3,4-b]pyridine-6-carbonyl)pyrimidin-2-yl)-N-(4-(3,3-dimethylureido)benzyl)-1-ethyl-7-methyl-4,5,6,7-tetrahydro-1H-pyrazolo[4,3-c]pyridine-3-carboxamide] | 1 | 34 |
| CNC(=O)c1ccc(CNC(=O)c2nn(C(C)C)c3c2CN(c2ncc(C(=O)N4Cc5cccnc5C4)cn2)C[C@@H]3C)cc1 [Example 496, (S)-5-(5-(6,7-dihydro-5H-pyrrolo[3,4-b]pyridine-6-carbonyl)pyrimidin-2-yl)-1-isopropyl-7-methyl-N-(4-(methylcarbamoyl)benzyl)-4,5,6,7-tetrahydro-1H-pyrazolo[4,3-c]pyridine-3-carboxamide] | 4 | 16 |
| CCOC(=O)Nc1ccc(CNC(=O)c2nn(C(C)C)c3c2CN(c2ccc(C(=O)N(C)C)cn2)C[C@@H]3C)cc1 [Example 497, ethyl (S)-(4-((5-(5-(dimethylcarbamoyl)pyridin-2-yl)-1-isopropyl-7-methyl-4,5,6,7-tetrahydro-1H-pyrazolo[4,3-c]pyridine-3-carboxamido)methyl)phenyl)carbamate] | 1 | 16 |
| CC(C)n1nc(C(=O)NCc2ccc(NC(=O)N(C)C)cc2)c2c1[C@@H](C)CN(c1ncc(C(=O)O)cn1)C2 [Example 498, (S)-2-(3-((4-(3,3-Dimethylureido)benzyl)carbamoyl)-1-isopropyl-7-methyl-1,4,6,7-tetrahydro-5H-pyrazolo[4,3-c]pyridin-5-yl)pyrimidine-5-carboxylic acid] | 133 | 3440 |
| CC(C)n1nc(C(=O)NCc2ccc(NC(=O)NCc3ccc(NC(=O)N(C)C)cc3)cc2)c2c1[C@@H](C)CN(c1ccc(C(=O)N(C)C)cn1)C2 [Example 499, (S)-5-(5-(dimethylcarbamoyl)pyridin-2-yl)-N-(4-(3-(4-(3,3-dimethylureido)benzyl)ureido)benzyl)-1-isopropyl-7-methyl-4,5,6,7-tetrahydro-1H-pyrazolo[4,3-c]pyridine-3-carboxamide] | 0.3 | 6 |

Now from value to molecule:

| EC50 [1] [nM] | IC50 [2] [nM] | SMILES |
| --- | --- | --- |
| 11 | 104 | CC(C)n1nc(C(=O)NCc2ccc(NC(=O)N(C)C)cc2)c2c1[C@@H](C)CN(c1ncc(C(=O)NCc3ccc(NC(=O)N(C)C)cc3)cn1)C2 [Example 500, (S)-N-(4-(3,3-dimethylureido)benzyl)-5-(5-((4-(3,3-dimethylureido)benzyl)carbamoyl)pyrimidin-2-yl)-1-isopropyl-7-methyl-4,5,6,7-tetrahydro-1H-pyrazolo[4,3-c]pyridine-3-carboxamide] |
| 7 | 50 | CC(C)n1nc(C(=O)NCc2ccc(NC(=O)N(C)C)cc2)c2c1[C@@H](C)CN(c1ccc(C(=O)NCc3ccc(NC(=O)N(C)C)cc3)cn1)C2 [Example 501, (S)-N-(4-(3,3-dimethylureido)benzyl)-5-(5-((4-(3,3-dimethylureido)benzyl)carbamoyl)pyridin-2-yl)-1-isopropyl-7-methyl-4,5,6,7-tetrahydro-1H-pyrazolo[4,3-c]pyridine-3-carboxamide] |
| 813 | 7550 | C[C@H]1CN(c2ncc(-c3nccn3C)cn2)Cc2c(C(=O)NCc3ccc(NC(=O)N(C)C)cc3)nn(C)c21 [Example 502, (S)-N-(4-(3,3-dimethylureido)benzyl)-1,7-dimethyl-5-(5-(1-methyl-1H-imidazol-2-yl)pyrimidin-2-yl)-4,5,6,7-tetrahydro-1H-pyrazolo[4,3-c]pyridine-3-carboxamide] |
| 1 | 13 | CCOC(=O)Nc1ccc(CNC(=O)c2nn(C(C)C)c3c2CN(c2ncc(C(=O)N(C)C)cn2)C[C@@H]3C)cc1 [Example 503, ethyl (S)-(4-((5-(5-(dimethylcarbamoyl)pyrimidin-2-yl)-1-isopropyl-7-methyl-4,5,6,7-tetrahydro-1H-pyrazolo[4,3-c]pyridine-3-carboxamido)methyl)phenyl)carbamate] |
| 874 | > 21200 | CC(C)n1nc(C(=O)NCc2ccc(NC(=O)N(C)C)cc2)c2c1[C@@H](C)CN(c1ccc(C(=O)O)cn1)C2 [Example 504, (S)-6-(3-((4-(3,3-dimethylureido)benzyl)carbamoyl)-1-isopropyl-7-methyl-1,4,6,7-tetrahydro-5H-pyrazolo[4,3-c]pyridin-5-yl)nicotinic acid] |
| 240 | 2510 | CCn1nc(C(=O)NCc2ccc(NC(=O)N(C)C)cc2)c2c1CCN(c1ccc(C(=O)N(C)C)cn1)[C@H]2C [Example 512, (S)-5-(5-(dimethylcarbamoyl)pyridin-2-yl)-N-(4-(3,3-dimethylureido)benzyl)-1-ethyl-4-methyl-4,5,6,7-tetrahydro-1H-pyrazolo[4,3-c]pyridine-3-carboxamide] |
